According to US5260275A, “Hypoglycemics” (Amylin Pharmaceuticals, Inc., priority 1990, dated 1993):
No end group written: not given here.

Columns and labels:
[1] = test system: amylin inhibition of insulin-stimulated muscle glycogen synthesis; assay: Antagonist assay in isolated rat soleus muscle (radiolabelled glucose into glycogen, Example 6); format: cell-based; settings: 1000 μU/mL insulin
Protocol: An antagonist assay was performed in vitro using the isolated soleus muscle from rats. It measured the rate of incorporation of radiolabelled glucose into muscle glycogen as follows: […] There were therefore 9 treatment groups (conditions 1,2,3 and six subgroups of condition 4). The right and left soleus muscles of 4-hour fasted rats were removed immediately after decapitation of the animals, divided in half and temporarily placed in physiological saline. Muscles were assigned to different treatment groups so that the 4 muscle pieces from each animal were evenly distributed among the 9 flasks representing the different assay conditions. […] Pharmacologically active agents were added to the 10mL of medium to result in the above stated concentrations and mixtures. […] Frozen muscle specimens were digested in 1 mL 60% potassium hydroxide at 70° C. for 45 minutes. […] The supernatant was aspirated and the glycogen washed with ethanol, aspirated and dried under vacuum. The remaining glycogen was redissolved in water and scintillation fluid and counted for ^14 C. From a knowledge of the specific activity of ^14 C-glucose in the 5.5 mM glucose of the incubation medium, and the total ^14 C counts remaining in the glycogen extracted from each muscle, the net rate of glycogen synthesis over the final 60 minute incubation period was determined. This was normalized per mass of muscle and expressed as μmoles of glucosyl units incorporated into glycogen per hour per gram of muscle. The antagonist dose/response curve was fitted to a 4-parameter logistic model using a least-squares iterative routine (ALLFIT, v2.7, NIH, MD) to derive the EC50 for disinhibition.

[2] = test system: HIT T-15 cells; assay: Insulin release from HIT T-15 cells; format: cell-based, hamster
Protocol: (§1) HIT T-15 cells (HIT cells; American Type Tissue Collection, Rockville, MD; R. F. Santerre, et al. (1981) Proc. Nat. Acad. Sci. USA 78, 4339-4343.) were subcultured weekly in Ham's F-12 medium (Irvine Scientific, Santa Ana, Calif.) containing 10% horse serum (Gemini Bioproducts, Calabasas, Calif.), 2.5% fetal bovine serum (FBS; Gemini), 2 mM L-glutamine, and 10.0 mM glucose. Cells were maintained at 37° C. and 5% CO2 / 95% humidified air and medium was replaced every 2 to 3 days. All experiments were performed with cells from passages 66 to 71.
(§2) Amylin and insulin secretion were measured using reagents of analytical grade unless otherwise indicated. The secretion medium was a Krebs-Ringer buffer (KRB) containing 119 mM NaCl, 4.74 mM KCl, 2,54 mM CaCl2, 1.19 mM MgSO4, 1.19 mM KH2 PO4, 25 mM NaHCO3, 10 mM HEPES and 0.1% protease-free bovine serum albumin (Cohn fraction V; Sigma Chemical Co., St. Louis Mo.) at pH 7.4. Glibenclamide (Sigma) was initially dissolved in ethanol (50 mg/ml) then diluted to working concentrations in KRB. […] Tolbutamide (Sigma) was initially dissolved in dimethylsulfoxide (50 mg/ml). […] Metformin (Sigma) was diluted in KRB.
(§3) Five days before each secretion study cells were subcultured at 0.26×10^6 cells/0.8 ml medium/well in 24-well tissue culture plates (Corning Glass Works, Corning N.Y.). Medium was replaced on day 3. On day 5 cells were washed twice with 1.0 ml KRB then incubated in 1.0 ml KRB (30 minutes, 37° C.) in equilibrium with air. Cells were washed twice more prior to addition of 0.5 ml KRB containing the indicated concentrations of glucose, metformin, tolbutamide and glibenclamide. After a 60 minute incubation with test substance or substances, supernatants were centrifuged (5 minutes, 500×g, 5° C.; GPKR centrifuge, Beckman Instruments, Inc., Palo Alto, Calif.) to remove cell debris, then stored in polypropylene micro test tubes (Brinkman Instrument Co., Westbury, N.Y.) at -20° C. until analyzed by radioimmunoassay. Supernatants were analyzed for insulin and amylin content within one week of collection. Three wells per plate were randomly selected for cell quantitation. Cells were incubated with 75 μg trypsin and 30 μg EDTA in 150 μl normal saline (8 minutes, 37° C.), then counted on a Coulter Counter (Model Zf, Coulter Electronics, Hialeah, Fla.).
(§4) Immunoreactive insulin content in supernatants was measured using a commercial radioimmunoassay (IM.78; Amersham, Arlington Heights, Ill.). […] The radioimmunoassay for immunoreactive amylin was as follows. Assay diluent was phosphate-buffered saline (PBS; 137 mM NaCl, 2.68 mM KCl, 1.47 mM KH2 PO4, 6.65 mM Na2 HPO4) containing 0.1% Triton-X 100 (v/v), 0.01% NaN3 (w/v), and 0.1% gelatin (v/v; teleostean, 45% aqueous solution, Sigma) at pH 7.4. All incubations were performed at 4° C. ^125 I-[Tyr 37]-human synthetic amylin tracer was iodinated by the chloramine-T method and purified on a C18 Sep-Pak (Waters Associates, Milford, Mass.). Specific activity was approximately 500 μCi/μg.
Data in FIGS. 3 and 4 are shown as the mean±S.D. of 4 replicate samples. An unpaired Student's t-test was used to compare secretion in the absence and presence of hypoglycemic agent (Statview 512+ program; Brain Power, Inc., Calabasas, Calif.).
HIT T-15 cells (HIT cells; American Type Tissue Collection, Rockville, Md.) were subcultured weekly in Ham's F-12 medium (Irvine Scientific, Santa Ana, Calif.) containing 10% horse serum (Gemini Bioproducts, Calabasas, Calif.), 2.5% fetal bovine serum (FBS; Gemini), 2 mM L-glutamine, 10^5 IU penicillin G/1, 100 mg streptomycin/1 and 10.0 mM glucose. Cells were maintained at 37° C. and 5% C02/ 95% humidified air and medium was replaced every 2 to 3 days. All experiments were performed with cells from passages 62 to 71.

[3] = test system: HIT T-15 cells; assay: Amylin release from HIT T-15 cells; format: cell-based, hamster; settings: for Effect on basal and glucose-stimulated amylin secretion (in words): same concentrations that stimulate insulin secretion (tolbutamide 100 μM; glibenclamide 0.1 and 1.0 μM), 0 and 10 mM glucose
Protocol: as §1, §2, §3, §4
Standards and unknowns were run in triplicate or duplicate respectively. After an 18 hour incubation, 100 μl of tracer containing 20,000 dpm was added and samples were incubated an additional 18 hours. To ensure complete immunoprecipitation of amylin:antibody complexes, 100 μl of rabbit gamma globulin (0.35 mg/ml, Scantibodies Laboratory, Santee, Calif.) and 100 μl of goat anti-rabbit gamma globulin (0.50 mg/ml, purified grade; Scantibodies) were added. After a 15 minute incubation, 1.0 ml 2% polyethylene glycol (w/v. MW 8,000; Sigma) in assay buffer was added and samples were centrifuged (30 minutes, 1500×g, 5° C.). Samples were decanted and pellets were counted on a gamma counter (model 1277; LKB Wallac, Turku, Finland).
Data in FIGS. 3 and 4 are shown as the mean±S.D. of 4 replicate samples.

[4] = Intravenous amylin bolus in normal rats; format: in vivo, rat
Protocol: We have also shown that amylin acutely produces diabetes (fasting hyperglycemia greater than 140 mg/dL) when administered intravenously. Eight normal rats were injected with a 100 μg bolus of amylin (rat amylin, Bachem, Torrance, Calif.). An intravenous amylin bolus produced a profound hyperglycemia to diabetic levels within 15-30 minutes (usually around 200 mg/dL). This hyperglycemia persists for several hours. […] There is an increase in respiratory quotient (RQ) after amylin only when somatostatin is absent and insulin is allowed to increase in response to hyperglycemia. During somatostatin infusion (no endogenous insulin release), there is no change in RQ, indicating no change from lipid to carbohydrate fuel usage in response to amylin in the fasted animal.

[5] = test system: isolated rat islets of Langerhans; assay: Glucose-stimulated insulin secretion from isolated rat islets of Langerhans; format: cell-based; settings: glucose 10 mmol/L
Protocol: The following experiments illustrate the fact that subpeptides of amylin can act to reduce the amount of insulin produced by isolated islets of Langerhans in response to a standard glucose challenge. Similar results have been obtained using whole amylin. All experiments were performed by known methods used in experimental practice. See, e.g., Lacey P. E., and Kostianovsky M., Method for the Isolation of Intact Islets of Lanaerhans from the Rat Pancreas. Diabetes 1967; 16:35-39.
Briefly, rats were killed, and islets of Langerhans were isolated from their pancreases. Experiments were performed either with freshly isolated islets or after overnight incubation of islets (23 h) in standard culture medium and conditions at 37° C. Synthetic amylin peptide 27-37 or synthetic calcitonin gene related peptide (CGRP) was dissolved in a 1.0 mmol/L citric acid/sodium citrate buffer, pH 3.0, and the concentration of the amylin 27-37 was verified by quantitative amino acid analysis. See, e.g., Cooper G. J. S. et al., Proc Natl Acad Sci USA 1987; 84:8628-8632. […] Stimulation of islets was carried out at the standard stimulatory glucose concentration of 10 mmol/L.
Production of insulin is expressed as μU/islet/h. All experiments were performed with five replicates per point. The integrity of the islet response was assessed by comparing the responses after stimulation of different aliquots of islets by two and ten mmol/L glucose, respectively, and the strength of the inhibitory response was judged against that induced by 1 μg/ml (650 nmol/L) somatostatin. Somatostatin is a 14 amino acid peptide which is a known, potent inhibitor of the insulin secretory response of islet B-cells to glucose. Arimura A. Biomed res1981; 2:233-257. […] Petterson M., Ahren B., Bottcher G., Sundler F., Endocrinology 1986; 119:865-869.
The results are shown in TABLE 5 below and all results are expressed as standard error of the mean (s.e.m.). The significance of differences between the means of groups is assessed by the t-test. The result of stimulation by 10 mmol/L glucose is compared with the results of stimulation at 2 mmol/L glucose. In all other experimental conditions, the significance of the inhibitory effect is measured against the effect of 10 mmol/L glucose alone.

[6] = 100 μg intravenous bolus, normal rats

With “insulin: Humulin-R, 100U/mL, recombinant human insulin (Eli Lilly)” the “Increase in rate of glycogen synthesis” value ([1]; zero amylin, zero antagonist) was 3.7 fold.

For `CN(C)C(=N)N=C(N)N` [metformin], the “Effect on insulin secretion (in words)” value ([2]; 10 and 100 μM, 0 and 10 mM glucose, 60 min) was “no measurable effect” and the “Effect on rates of amylin secretion (in words)” value ([3]; islet β-cells (HIT), concentration range examined) was “does not influence”.

With “rat amylin: rat amylin, Bachem, Torrance, Calif. (KCNTATCATQRLANFLVRSSNNLGPVLPPTNVGSNTY; ends and bridges not checked; cysteine pairing not given here; UniProt P12969 38-74, looked up)” the “Decrease of insulin-stimulated rate of glycogen synthesis” value ([1]; 20 nM amylin) was “approximately 83%”, the Duration of hyperglycemia [4, 6] was “several hours” and the “Hepatic (endogenous) glucose output” value [4, 6] was “increase”. For the same compound, the “Hyperglycemia level after bolus” value [4, 6] was “around 200 mg/dL”, the Peripheral glucose disposal [4, 6] was “increased impediment” and the Plasma lactate [4, 6] was “transient increase”. The “Time to hyperglycemia at diabetic levels” value [4, 6] was 15 to 30 min, the “Respiratory quotient (RQ)” value ([4]; during somatostatin infusion (no endogenous insulin release)) was “no change” and the “Respiratory quotient (RQ)” value ([4]; somatostatin absent, insulin allowed to increase) was “increase”.

In the case of “CGRP 27-37: subpeptide 27-37 of calcitonin gene related peptide (FVPTNVGSKAF; ends and bridges not checked; UniProt P06881 109-119, looked up, fragment)”, the Insulin production ([5]; substance 10 nmol/L) is reported as 36 μU/islet/hr, the “Relative insulin secretion inhibition (percentage by which insulin production is reduced from control)” value ([5]; substance 10 nmol/L) is reported as 55% and the Insulin production ([5]; substance 100 nmol/L) is reported as 36 μU/islet/hr. The “Relative insulin secretion inhibition (percentage by which insulin production is reduced from control)” value ([5]; substance 100 nmol/L) was 55%, the Insulin production ([5]; substance 1000 nmol/L) was 46 μU/islet/hr and the “Relative insulin secretion inhibition (percentage by which insulin production is reduced from control)” value ([5]; substance 1000 nmol/L) was 42%.

In the case of `CCCCNC(=O)NS(=O)(=O)c1ccc(C)cc1` [tolbutamide], the “Effect on basal and glucose-stimulated secretion of insulin (in words)” value ([2]; 100 μM, 0 and 10 mM glucose, 60 min) is reported as “significantly enhanced” and the “Effect on basal and glucose-stimulated amylin secretion (in words)” value [3] is reported as “significantly increase”.

In the case of “CGRP8-37: 8-37 human CGRP (Bachem), amylin antagonist”, the “Effect on amylin inhibition of insulin-stimulated muscle glycogen synthesis (in words)” value ([1]; 20 nM amylin) is reported as “partly reverses”, the “Increment in the rate of glycogen synthesis, maximum reached” value ([1]; 20 nM amylin, antagonist 1 nM-10 μM) is reported as “about 115 % of basal” and the EC50 ([1]; 20 nM amylin, read-out: EC50 for disinhibition (half maximal concentration)) is reported as 1.2 nM.

With `COc1ccc(Cl)cc1C(=O)NCCc1ccc(S(=O)(=O)NC(=O)NC2CCCCC2)cc1` [glibenclamide] the “Proportional increase of basal insulin release” value ([2]; 0 glucose) was “more than two-fold”, the “Effect on basal and glucose-stimulated secretion of insulin (in words)” value ([2]; 0.1 and 1.0 μM, 0 and 10 mM glucose, 60 min) was “significantly enhanced” and the “Proportional increase in basal amylin secretion” value ([3]; basal conditions (0 glucose)) was “approximately two-fold”. For the same compound, the “Effect on basal and glucose-stimulated amylin secretion (in words)” value [3] was “significantly increase”.
